Patent US8455514B2 (Aerie Pharmaceuticals, Inc., priority 2008, dated 2013)
Counter-ions that a name gives are not always drawn.

Experiments:
eyes [1] = assay: Topical pharmaceutical composition administered to the eyes as drops (present-tense composition examples); assay type: in vivo, patient; details: composition of Example 90 (0.50 wt %)
Method: (§1) Topical pharmaceutical compositions for lowering intraocular pressure are prepared by conventional methods and formulated as follows: […]
A compound according to this invention is used as the 6- or 7-aminoisoquinoline derivative. When the composition is topically administered to the eyes once or more daily as 40 microliter drops, the above composition decreases intraocular pressure in a patient suffering from glaucoma.

eyes [2] = assay: as above; assay type: in vivo, patient; details: composition of Example 90 (0.50 wt %); for neuroprotective effect: topical drop 4 times per day; for effect on hyperemia, redness and ocular irritation: drop as needed
[3] = tested on: eyes of a Dutch-belted rabbit; assay: Intraocular pressure after a topical drop to the eyes of Dutch-belted rabbits; assay type: in vivo; details: composition of Example 105 (0.30 wt %), 40 microliter drop topically once daily; for decrease of intraocular pressure: in some tests
Method: as §1
A pharmaceutical composition was prepared according to Example 105, where the 6-aminoisoquinoline derivative was (R)-2-(dimethylamino)-N-(1-hydroxyisoquinolin-6-yl)-2-(thiophen-3-yl)acetamide hydrochloride (E79). […] In some tests, the intraocular pressure was decreased by greater than 5 mm of mercury.

[4] = topical drop twice a day or as needed

(R)—N-(isoquinolin-6-yl amino)-2-(methylamino)-2-o-fluorophenyl acetamide dihydrochloride [Example E17]
effect on intraocular pressure (eyes [1]; topical drop 4 times per day): substantially decreases intraocular pressure
neuroprotective effect (eyes [2]): serves as a neuroprotective agent

CC(C)C[C@@H](C(=O)Nc1ccc2ccncc2c1)N(C)C(=O)OC(C)(C)C [Example E87, (S)-tert-butyl 1-(isoquinolin-7-ylamino)-4-methyl-1-oxopentan-2-yl(methyl)carbamate]
effect on intraocular pressure (eyes [1]; topical drop 4 times per day): substantially decreases intraocular pressure

CN[C@@H](CC(C)C)C(=O)Nc1ccc2ccncc2c1 [Example E88, (S)—N-(isoquinolin-7-yl)-4-methyl-2-(methylamino)pentanamide dihydrochloride]
effect on intraocular pressure (eyes [1]; topical drop 4 times per day): substantially decreases intraocular pressure

Cl.Cl.N[C@@H](C(=O)Nc1ccc2cnccc2c1)C1CCCCC1 [Example E9, (R)—N-(isoquinolin-6-ylamino)-2-amino-2-cyclohexyl acetamide dihydrochloride]
effect on allergic symptoms (eyes [2]; topical drop as needed): substantially decreases allergic symptoms

CN(C)[C@@H](C(=O)Nc1ccc2c(O)nccc2c1)c1ccsc1 [Example E79, (R)-2-(dimethylamino)-N-(1-hydroxyisoquinolin-6-yl)-2-(thiophen-3-yl)acetamide hydrochloride]
effect on intraocular pressure [3]: substantially decreased intraocular pressure
decrease of intraocular pressure [3]: greater than 5 mm of mercury

O=S(=O)(Nc1ccc2cnccc2c1)C(NC1CCCCC1)c1ccccc1 (stereo not shown) [Example E50]
effect on allergic symptoms (eyes [2]; topical drop twice per day): substantially decreases allergic symptoms
effect on dry eye syndrome (eyes [2]; topical drop twice per day): relieves dry eye syndrome

N[C@@H](C(=O)Nc1ccc2cnccc2c1)c1ccccc1 [Example E2, (R)-2-amino-N-(isoquinolin-6-yl)-2-phenylacetamide dihydrochloride]
effect on intraocular pressure (eyes [1]; topical drop 4 times per day): substantially decreases intraocular pressure
neuroprotective effect (eyes [2]): serves as a neuroprotective agent

CN(C)[C@@H](C(=O)Nc1ccc2cnccc2c1)c1ccccc1 [Example E3, (R)-2-(dimethylamino)-N-(isoquinolin-6-yl)-2-phenylacetamide dihydrochloride]
effect on intraocular pressure (eyes [1]; topical drop twice per day): substantially decreases intraocular pressure
effect on hyperemia, redness and ocular irritation (eyes [2]): substantially decreases hyperemia, redness and ocular irritation

CCCN[C@H](C(=O)Nc1ccc2cnccc2c1)C1CCCCC1 [Example E25, (S)-2-cyclohexyl-N-(isoquinolin-6-yl)-2-(propylamino)acetamide]
effect on intraocular pressure (eyes [1]; [4]): substantially decreases intraocular pressure

CN(C)[C@@H](C(=O)Nc1ccc2cnccc2c1)c1ccsc1.Cl [Example E80, (R)-2-(dimethylamino)-N-(isoquinolin-6-yl)-2-(thiophen-3-yl)acetamide hydrochloride]
effect on intraocular pressure [3]: substantially decreased intraocular pressure
decrease of intraocular pressure [3]: greater than 5 mm of mercury

(R)—N-(isoquinolin-6-yl-amino)-2-(ethylamino)-2-p-methylphenyl acetamide dihydrochloride [Example E18]
effect on intraocular pressure (eyes [1]; topical drop twice per day): substantially decreases intraocular pressure

O=C(Nc1ccc2cnccc2c1)[C@@H](c1ccccc1)N1CCNCC1 [Example E40, (R)—N-(isoquinolin-6-yl)-2-phenyl-2-(piperazin-1-yl)acetamide]
effect on hyperemia, redness and ocular irritation (eyes [2]): substantially decreases hyperemia, redness and ocular irritation

O=C(Nc1ccc2cnccc2c1)[C@@H](c1ccccc1)N1CCCNC1 [Example E41, (R)—N-(isoquinolin-6-yl)-2-phenyl-2-(tetrahydropyrimidin-1(2H)-yl)acetamide]
effect on intraocular pressure (eyes [1]; [4]): substantially decreases intraocular pressure
